# US20080138291A1, “Sulfonamide Derivatives Having Carbonic Anhydrase Inhibiting Activity and their Use as Therapeutic and Diagnostic Agents” (UNION LIFE SCIENCES LTD., priority 2005, published 2008)
# Where two headings read alike, the source gives them in different places.
# Columns and labels:
# [1] = biological target: hCA I (Homo sapiens, UniProt P00915); assay: CA inhibition, CO2 hydration method, isozyme I; format: biochemical
# [2] = biological target: hCA IX (Homo sapiens, UniProt Q16790); assay: CA inhibition, CO2 hydration method, isozyme IX (catalytic domain); format: biochemical
# [3] = biological target: hCA II (Homo sapiens, UniProt P00918); assay: CA inhibition, CO2 hydration method, isozyme II; format: biochemical; details: for Ki: human cloned isozyme, CO2 hydration method; for hCA II inhibitors, ranking in the series: discussion of Table 1
# [4] = biological target: hCA XII (Homo sapiens, UniProt O43570); assay: CA inhibition, CO2 hydration method, isozyme XII (catalytic domain); format: biochemical; details: Table 2, catalytic domain of human cloned isozyme
# Chain of hCA XII (O43570 30-289 limits assumed): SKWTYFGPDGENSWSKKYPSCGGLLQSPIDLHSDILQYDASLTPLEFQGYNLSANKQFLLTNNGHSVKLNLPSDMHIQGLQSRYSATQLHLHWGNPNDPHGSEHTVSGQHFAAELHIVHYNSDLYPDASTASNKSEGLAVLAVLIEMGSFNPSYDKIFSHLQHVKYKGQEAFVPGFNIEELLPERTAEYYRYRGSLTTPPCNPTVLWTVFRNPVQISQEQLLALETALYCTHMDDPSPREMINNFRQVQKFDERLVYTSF
# [5] = tested on: human red cells; assay: Ex vivo penetration through red blood cell membranes; details: for [sulfonamide] in red blood cells, t = 30 min, HPLC / [sulfonamide] in red blood cells, t = 30 min, ES / [sulfonamide] in red blood cells, t = 60 min, HPLC / [sulfonamide] in red blood cells, t = 60 min, ES / [sulfonamide] in red blood cells, t = 48 h, HPLC / [sulfonamide] in red blood cells, t = 48 h, ES: 3 mM sulfonamide in 5 mM Tris buffer pH 7.4; for [sulfonamide] in red blood cells, t = 30 min, HPLC / [sulfonamide] in red blood cells, t = 60 min, HPLC / [sulfonamide] in red blood cells, t = 48 h, HPLC: HPLC method; for [sulfonamide] in red blood cells, t = 30 min, ES / [sulfonamide] in red blood cells, t = 60 min, ES / [sulfonamide] in red blood cells, t = 48 h, ES: electronic spectroscopy; for membrane permeability at exposure times of 30-60 min / membrane permeability after 48 hours of exposure: human RBCs, pH 7.4
# [6] = tested on: human red cells
# [7] = tested on: SiHa cervical carcinoma cells; assay: Binding of fluorescent sulfonamide to SiHa cells; details: hypoxic versus normoxic cells
# Description: (§2) Sulfonamide treatment of cells. The sulfonamides were dissolved in PBS with 20% DMSO at 100 mM concentration and diluted in a culture medium to a required final concentration just before their addition to cells. Immediately after beginning of the treatment with sulfonamides, the cells were transferred to hypoxia and incubated for 48 h. Parallel cultures were maintained for the same time period in normoxia.
# [8] = tested on: HeLa cervical carcinoma cells; assay: Binding of fluorescent sulfonamide to HeLa cells; details: hypoxic versus normoxic cells
# Description: as §2
# [9] = tested on: SiHa cervical carcinoma cells; assay: Effect on extracellular pH of SiHa cells in hypoxia; format: cell-based; details: hypoxia 48 h, 1 mM
# [10] = tested on: HeLa cervical carcinoma cells; assay: Effect on extracellular pH of HeLa cells in hypoxia; format: cell-based; details: hypoxia 48 h, 1 mM
# Description: Cell cultures. MDCK and HeLa cells as well as their transfected derivatives were grown in DMEM with 10% FCS (BioWhittaker, Verviers, Belgium) buffered with 22.4 mM bicarbonate and containing supplements as described before (Svastova, E.; et al.; Exp. Cell. Res. 2003, 290, 332-345) To maintain standard experimental conditions, the cells were always plated in 3 ml of culture medium at a density of 0.8−1×10^6 per 6 cm dish 24 h before the transfer to hypoxia (2% O2 and 5% CO2 balanced with N2) generated in a Napco 7000 incubator, where they were grown for additional 48 h (if not stated otherwise). Parallel normoxic dishes were incubated in air with 5% CO2.
# (§1) Sulfonamide treatment of cells. […] Images were acquired by Nikon Coolpix 990.
# Mean differences in the pH values determined in the treated versus control dishes are shown on the histogram with indicated standard deviations. The experiment was repeated three times using at least three parallel dishes for each sample.
# [11] = tested on: MDCK-CA IX cells; assay: Binding of fluorescent sulfonamide to MDCK-CA IX cells (fluorescence microscopy); format: cell-based, canine; details: CA IX-positive and mock-transfected MDCK cells, normoxia or hypoxia 48 h
# From the text: as §1
# [12] = Table 1, human cloned isozyme, read-out: KI hCA I
# [13] = Table 1, catalytic domain of human cloned isozyme
# [14] = Table 2, human cloned isozyme, read-out: KI hCA I
# [15] = Table 2, catalytic domain of human cloned isozyme
# Chain of hCA I (P00915 whole entry, the tested form may be a part): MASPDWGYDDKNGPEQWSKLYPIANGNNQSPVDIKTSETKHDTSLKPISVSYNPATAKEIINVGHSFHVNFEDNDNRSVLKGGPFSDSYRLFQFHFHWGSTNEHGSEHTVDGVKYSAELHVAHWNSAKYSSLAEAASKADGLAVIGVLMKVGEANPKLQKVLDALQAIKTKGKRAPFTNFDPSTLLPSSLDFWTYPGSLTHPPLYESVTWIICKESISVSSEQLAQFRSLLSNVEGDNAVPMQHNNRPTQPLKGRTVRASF
Structure (SMILES),"Ki [1, 12] [nM]","Ki [2, 13] [nM]",Ki ([3]; Table 1) [nM],"Ki [1, 14] [nM]",Ki [4] [nM],"Ki [2, 15] [nM]",Ki ([3]; Table 2) [nM],also measured
NS(=O)(=O)c1ccc(NC(=S)Nc2ccc(-c3c4ccc(=O)cc-4oc4cc(O)ccc34)c(C(=O)O)c2)c(Cl)c1 [5f],950,32,52,–,–,–,–,–
"NS(=O)(=O)c1cccc(NC(=S)Nc2ccc(-c3c4ccc(=O)cc-4oc4cc(O)ccc34)c(C(=O)O)c2)c1 [5i, (3-Sulfamoylphenyl)thioureido fluorescein]",1400,34,52,–,–,–,–,–
"NS(=O)(=O)c1ccc(NC(=S)Nc2ccc(-c3c4ccc(=O)cc-4oc4cc(O)ccc34)c(C(=O)O)c2)cc1 [5a, (4-Sulfamoylphenyl)thioureido fluorescein]",1500,29,41,–,–,–,–,–
"NS(=O)(=O)c1cccc(NC(=O)Nc2ccc(-c3c4ccc(=O)cc-4oc4cc(O)ccc34)c(C(=O)O)c2)c1 [compound 2, (3-Sulfamoylphenyl)ureido fluorescein]",–,–,–,1800,9,30,43,–
"NS(=O)(=O)c1ccc(CNC(=S)Nc2ccc(-c3c4ccc(=O)cc-4oc4cc(O)ccc34)c(C(=O)O)c2)cc1 [5b, (4-sulfamoylphenylmethyl)thioureido fluorescein]",1450,26,–,–,–,–,–,"[sulfonamide] in red blood cells, t = 30 min, HPLC [5]: 0.5 µM; [sulfonamide] in red blood cells, t = 30 min, ES [5]: 0.8 µM; [sulfonamide] in red blood cells, t = 60 min, HPLC [5]: 0.8 µM; [sulfonamide] in red blood cells, t = 60 min, ES [5]: 0.8 µM; [sulfonamide] in red blood cells, t = 48 h, HPLC [5]: 10.1 µM; [sulfonamide] in red blood cells, t = 48 h, ES [5]: 2.5 µM; membrane permeability at exposure times of 30-60 min [5]: decreased membrane permeability; membrane permeability after 48 hours of exposure [5]: slightly more permeant"
NS(=O)(=O)c1ccc(NC(=S)Nc2ccc(-c3c4ccc(=O)cc-4oc4cc(O)ccc34)c(C(=O)O)c2)c(Br)c1 [5g],1100,35,43,–,–,–,–,–
"NS(=O)(=O)c1ccccc1NC(=O)Nc1ccc(-c2c3ccc(=O)cc-3oc3cc(O)ccc23)c(C(=O)O)c1 [compound 3, (2-Sulfamoylphenyl)ureido fluorescein]",–,–,–,1900,18,46,76,–
"NS(=O)(=O)c1ccc(NC(=O)Nc2ccc(-c3c4ccc(=O)cc-4oc4cc(O)ccc34)c(C(=O)O)c2)cc1 [compound 1, (4-Sulfamoylphenyl)ureido fluorescein]",–,–,–,1700,11,21,36,–
NS(=O)(=O)c1ccc(NNC(=S)Nc2ccc(-c3c4ccc(=O)cc-4oc4cc(O)ccc34)c(C(=O)O)c2)cc1 [5d],1200,25,40,–,–,–,–,–
NS(=O)(=O)c1ccc(NC(=S)Nc2ccc(-c3c4ccc(=O)cc-4oc4cc(O)ccc34)c(C(=O)O)c2)c(F)c1 [5e],980,30,–,–,–,–,–,–
NS(=O)(=O)c1ccc(CNS(=O)(=O)c2ccc(NC(=S)Nc3ccc(-c4c5ccc(=O)cc-5oc5cc(O)ccc45)c(C(=O)O)c3)cc2)cc1 [5j],630,20,34,–,–,–,–,"hCA II inhibitors, ranking in the series [3]: best hCA II inhibitors in this series"
"CC(=O)/N=c1/sc(S(N)(=O)=O)nn1C [MZA, methazolamide, reference compound]",–,–,–,–,–,–,–,"penetration through red blood cell membranes [6]: easily penetrate through biological membranes; [sulfonamide] in red blood cells, t = 30 min, HPLC [5]: 170 µM; [sulfonamide] in red blood cells, t = 30 min, ES [5]: 169 µM; [sulfonamide] in red blood cells, t = 60 min, HPLC [5]: 168 µM; [sulfonamide] in red blood cells, t = 60 min, ES [5]: 168 µM; [sulfonamide] in red blood cells, t = 48 h, HPLC [5]: 167 µM; [sulfonamide] in red blood cells, t = 48 h, ES [5]: 169 µM"
"NS(=O)(=O)c1ccc(CCNC(=S)Nc2ccc(-c3c4ccc(=O)cc-4oc4cc(O)ccc34)c(C(=O)O)c2)cc1 [5c, (4-Sulfamoylphenylethyl)thioureido fluorescein]",–,–,–,–,–,–,–,"Ki ([1]; KI hCA I, Table 1, human cloned isozyme): 1300 nM; binding to SiHa cells [7]: binds to hypoxic HeLa and SiHa cells; binding to HeLa cells [8]: binds to hypoxic HeLa and SiHa cells; acidosis (pHe) of hypoxic SiHa cells [9]: reduced; [sulfonamide] in red blood cells, t = 30 min, HPLC [5]: 0.4 µM; [sulfonamide] in red blood cells, t = 30 min, ES [5]: 0.9 µM; [sulfonamide] in red blood cells, t = 60 min, HPLC [5]: 0.6 µM; [sulfonamide] in red blood cells, t = 60 min, ES [5]: 1.2 µM; [sulfonamide] in red blood cells, t = 48 h, HPLC [5]: 10.4 µM; [sulfonamide] in red blood cells, t = 48 h, ES [5]: 3.0 µM; membrane permeability at exposure times of 30-60 min [5]: decreased membrane permeability; membrane permeability after 48 hours of exposure [5]: slightly more permeant; acidosis (pHe) of hypoxic HeLa cells [10]: reduced; fluorescence signal (binding to cells) [11]: detected only in the hypoxic MDCK-CA IX cells"
"NS(=O)(=O)c1nnc(NS(=O)(=O)c2ccc(NC(=S)Nc3ccc(-c4c5ccc(=O)cc-5oc5cc(O)ccc45)c(C(=O)O)c3)cc2)s1 [5k, [4-(5-Sulfamoyl-[1,3,4]thiadiazol-2-ylsulfamoyl)-phenyl]-thioureido fluorescein]",480,16,27,–,–,–,–,"hCA II inhibitors, ranking in the series [3]: best hCA II inhibitors in this series"
"NS(=O)(=O)c1ccc(NC(=S)Nc2ccc(-c3c4ccc(=O)cc-4oc4cc(O)ccc34)c(C(=O)O)c2)c(I)c1 [5h, (2-Iodo-4-sulfamoylphenyl)thioureido fluorescein]",1070,31,40,–,–,–,–,–

# Now from value to compound, other results behind:
"Ki [1, 12] [nM]","Ki [2, 13] [nM]",Ki ([3]; Table 1) [nM],"Ki [1, 14] [nM]",Ki [4] [nM],"Ki [2, 15] [nM]",Ki ([3]; Table 2) [nM],Structure (SMILES),also measured
–,–,–,1560,8,21,40,"NS(=O)(=O)c1ccc(CNC(=O)Nc2ccc(-c3c4ccc(=O)cc-4oc4cc(O)ccc34)c(C(=O)O)c2)cc1 [compound 4, (4-Sulfamoylphenylmethyl)ureido fluorescein]",–
–,–,–,1200,10,21,40,"NS(=O)(=O)c1ccc(NC(=O)Nc2ccc(-c3c4ccc(=O)cc-4oc4cc(O)ccc34)c(C(=O)O)c2)c(F)c1 [compound 6, (2-Fluoro-4-sulfamoylphenyl)ureido fluorescein]",–
–,–,–,1350,7,21,43,"NS(=O)(=O)c1ccc(NC(=O)Nc2ccc(-c3c4ccc(=O)cc-4oc4cc(O)ccc34)c(C(=O)O)c2)c(I)c1 [compound 9, (2-Iodo-4-sulfamoylphenyl)ureido fluorescein]",–
–,–,–,1340,7,–,35,"NS(=O)(=O)c1ccc(CCNC(=O)Nc2ccc(-c3c4ccc(=O)cc-4oc4cc(O)ccc34)c(C(=O)O)c2)cc1 [compound 5, (4-Sulfamoylphenylethyl)ureido fluorescein]",–
–,–,–,520,5,7,14,"NS(=O)(=O)c1ccc(CNS(=O)(=O)c2ccc(NC(=O)Nc3ccc(-c4c5ccc(=O)cc-5oc5cc(O)ccc45)c(C(=O)O)c3)cc2)cc1 [compound 10, [4-(4-Sulfamoyl-benzylsulfamoyl)-phenyl]-ureido fluorescein]",–
–,–,–,1330,12,22,43,NS(=O)(=O)c1ccc(NC(=O)Nc2ccc(-c3c4ccc(=O)cc-4oc4cc(O)ccc34)c(C(=O)O)c2)c(Cl)c1 [compound 7],–
–,–,–,410,3,6,13,"NS(=O)(=O)c1nnc(NS(=O)(=O)c2ccc(NC(=O)Nc3ccc(-c4c5ccc(=O)cc-5oc5cc(O)ccc45)c(C(=O)O)c3)cc2)s1 [compound 11, [4-(5-Sulfamoyl-[1,3,4]thiadiazol-2-ylsulfamoyl)-phenyl]-ureido fluorescein]",–
